# Measurements reported in patent publication US9701689B2, “Substituted pyridines and pyridazines as CCR10 receptor inhibitors” (KYOWA HAKKO KIRIN CO., LTD., priority 2012, dated 2017).
# Biological target: T1, human CCR10 (Homo sapiens, UniProt P46092)
# T1 construct: expressed in transfected cells; host or cells: KJMGER8 cells (Namalwa cell-derived line), beta-estradiol-induced; hCCR10G16 cells
# T1 sequence (P46092 1-362): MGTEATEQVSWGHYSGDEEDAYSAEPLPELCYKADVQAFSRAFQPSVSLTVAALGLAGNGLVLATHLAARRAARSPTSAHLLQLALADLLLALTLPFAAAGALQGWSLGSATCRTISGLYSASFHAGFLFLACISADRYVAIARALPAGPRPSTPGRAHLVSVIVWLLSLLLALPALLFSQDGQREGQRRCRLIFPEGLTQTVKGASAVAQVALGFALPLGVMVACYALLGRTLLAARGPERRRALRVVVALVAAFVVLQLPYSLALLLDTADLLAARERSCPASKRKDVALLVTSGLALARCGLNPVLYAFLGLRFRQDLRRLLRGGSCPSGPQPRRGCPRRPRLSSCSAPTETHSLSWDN
# Assay: CCR10 antagonistic effect: calcium assay of human CCR10 (CTACK-induced increase of intracellular calcium in hCCR10G16 cells)
# Type: cell-based
# Conditions: at a concentration of not more than 1000 nmol/L; human CCR10-expressing hCCR10G16 cells, 300 nmol/L CTACK added; read-out: inhibition of increase in the calcium ion concentration
# Experimental: [Experimental Example 1] CCR10 Antagonistic Effect
# (1) Preparation of Human CCR10-Inducible Expression Plasmid
# A CCR10-inducible expression plasmid was prepared according to a known method [Analytical Biochemistry, 2006, vol. 400, page 163]. A DNA encoding human CCR10 was obtained by PCR. Using human chromosome DNA (100 ng; manufactured by Clontech) as a template, synthetic DNA having the sequences depicted in SEQ ID NOs: 1 and 2 as a human CCR10 cDNA specific primer, and Pyrobest DNA Polymerase (manufactured by TAKARA SHUZO CO. LTD.) as an enzyme, a DNA encoding human CCR10 was obtained by PCR. As a buffer for PCR, the buffer attached to the enzyme to be used, which was diluted 10-fold with deionized water, was used. Using Thermal Cycler DNA Engine (manufactured by MJ Research), PCR was performed by 35 cycles of reactions composed of an incubation at 94° C. for 30 sec, at an anneal temperature of 58° C. for 30 sec, and at 72° C. for 1 min after treating at 90° C. for 2 min.
# The amplified PCR fragment was cleaved with HindIII and NotI, then a human CCR10 DNA fragment was recovered by the agarose gel electrophoresis method. The fragment was incorporated between the corresponding restriction enzyme sites (HindIII-NotI) of an inducible expression vector to construct a human CCR10-inducible expression plasmid.
# Using a primer specific to the sequence of plasmid (synthetic DNA having the sequences shown in SEQ ID NOs: 3 and 4), the sequence of human CCR10 DNA region was determined. For the determination of the base sequence, DNA Sequencer 377 (manufactured by Perkin Elmer. Co.) and a reaction kit (ABI Prism (registered trade mark) BigDye (registered trade mark) Terminator Cycle Sequencing Ready Reaction kit: manufactured by Applied Biosystems) were used. The sequence of human CCR10 DNA was identical with the sequence (NM 016602) registered in GenBank.
# (2) Preparation of Human CCR10 Expressing Cell for Calcium Assay
# Cells for detecting signals from human CCR10 in calcium assay were prepared. According to a known method [Analytical.Biochemistry (Analy Biochem), 2006, vol. 400, page 163], human CCR10-inducible expressing cells whose host cell is KJMGER8 cell (Namalwa cell-derived cell line) were prepared. Human CCR10-inducible expression plasmid produced above and Gα16 expression plasmid were co-transfected into the KJMGER8 cells by the electroporation method [Cytotechnology, 1990, vol. 3, page 133], whereby the signals from human CCR10 could be detected by calcium assay (hereinafter to be referred to as hCCR10G16 cell). A Ga16 expression plasmid was produced by incorporating human Ga16 DNA into expression vector pAMoh (WO 03/087366). Expression of human CCR10 was induced by cultivating hCCR10G16 cells in the presence of 10 nmol/L β-estradiol (manufactured by Sigma Ltd.) for 24 hr.
# (3) Calcium Assay of Human CCR10
# Cells expressing human CCR10 induced by the above-mentioned method were suspended in RPMI1640 medium (manufactured by Invitrogen), and adjusted to a cell density of 2×10^6 cells/mL. The cells were blended with an equivalent volume of a loading buffer prepared according to the attached protocol of Fluo-3 calcium assay kit (manufactured by Molecular Devices Corporation), and incubated at 37° C. for several dozen minutes. This mixture was dispensed to a 384 well clear-bottom plate (manufactured by Corning Incorporated) at 40 μL/well. To this plate was added a solution of the test compound in dimethyl sulfoxide (DMSO), which was diluted 37-fold with RPMI1640 medium, at 5 μL/well, and the mixture was incubated at 37° C. for 30 min. 300 nmol/L human recombinant CTACK (manufactured by R&D Systems, Inc.) diluted with RPMI1640 medium containing 1 w/v % bovine serum albumin (manufactured by Sigma Ltd.) was added at 5 μL/well and, variation of intracellular calcium ion concentration for about 5 min after the addition was measured by a screening apparatus (FDSS; manufactured by Hamamatsu Photonics K.K.). […]
row,Structure (SMILES),inhibition at up to 1 µM [%]
1,"Cc1cc(F)ccc1Nc1c(C(=O)N2CCC(c3ccc(F)cc3)CC2)cnc(S(=O)(=O)N2CCC(N)CC2)c1Cl [Compound 184, [6-(4-aminopiperidin-1-ylsulfonyl)-5-chloro-4-(4-fluoro-2-methylphenylamino)pyridin-3-yl][4-(4-fluorophenyl)piperidin-1-yl]methanone]",≥ 50
2,"Cc1ccc(Nc2c(C(=O)N3CCC(c4ccc(F)cc4)CC3)cnc(S(=O)(=O)Nc3ccon3)c2C)cc1C [Compound 263, 4-(3,4-dimethylphenylamino)-5-[4-(4-fluorophenyl)piperidine-1-carbonyl]-N-(isoxazol-3-yl)-3-methylpyridine-2-sulfonamide]",≥ 50
3,"Cc1cc(F)ccc1Nc1cc(S(=O)(=O)Nc2ncc(Br)cn2)ncc1C(=O)N1CCC(c2ccc(F)cc2)CC1 [Compound 147, N-(5-bromopyrimidin-2-yl)-4-(4-fluoro-2-methylphenylamino)-5-[4-(4-fluorophenyl)piperidine-1-carbonyl]pyridine-2-sulfonamide]",≥ 50
4,"Cc1ccccc1Nc1c(C(=O)N2CCC(c3ccc(F)cc3)CC2)cnc(S(=O)(=O)c2ccccc2)c1Cl [Compound 205, [5-chloro-6-(phenylsulfonyl)-4-(o-tolylamino)pyridin-3-yl][4-(4-fluorophenyl)piperidin-1-yl]methanone]",≥ 50
5,"Cc1c(S(=O)(=O)Nc2ccon2)ncc(C(=O)N2CCC(c3ccc(F)cc3)CC2)c1Nc1cccc(Cl)c1F [Compound 265, 4-(3-chloro-2-fluorophenylamino)-5-[4-(4-fluorophenyl)piperidine-1-carbonyl]-N-(isoxazol-3-yl)-3-methylpyridine-2-sulfonamide]",≥ 50
6,"Cc1cccc(Nc2c(C(=O)N3CC=C(c4ccc(F)cc4)CC3)cnc(S(N)(=O)=O)c2Cl)c1 [Compound 202, 3-chloro-5-[4-(4-fluorophenyl)-1,2,3,6-tetrahydropyridine-1-carbonyl]-4-(m-tolylamino)pyridine-2-sulfonamide]",≥ 50
7,"COC1(c2ccc(F)cc2)CCN(C(=O)c2cnc(S(N)(=O)=O)c(Cl)c2Nc2cc(Cl)ccc2C)CC1 [Compound 313, 3-chloro-4-(5-chloro-2-methylphenylamino)-5-[4-(4-fluorophenyl)-4-methoxypiperidine-1-carbonyl]pyridine-2-sulfonamide]",≥ 50
8,"CC(=O)c1ccc(C)c(NC2=CC=NC(S(N)(=O)=O)C2(Cl)C(=O)N2CCC(c3ccc(F)cc3)CC2)c1 (stereo not drawn) [Compound 303, 4-(5-acetyl-2-methylphenylamino)-3-chloro-3-[4-(4-fluorophenyl)piperidine-1-carbonyl]pyridine-2-sulfonamide]",≥ 50
9,"COc1ccc(F)c(Nc2c(C(=O)N3CCC(c4ccc(F)cc4)CC3)cnc(S(=O)(=O)Nc3ccon3)c2C)c1 [Compound 268, 4-(2-fluoro-5-methoxyphenylamino)-5-[4-(4-fluorophenyl)piperidine-1-carbonyl]-N-(isoxazol-3-yl)-3-methylpyridine-2-sulfonamide]",≥ 50
10,"Cc1c(S(N)(=O)=O)ncc(C(=O)N2CC(c3ccc(F)cc3)C2)c1Nc1cccc(Cl)c1 [Compound 285, 4-(3-chlorophenylamino)-5-[3-(4-fluorophenyl)azetidine-1-carbonyl]-3-methylpyridine-2-sulfonamide]",≥ 50

# Second part, the molecule after the results:
row,inhibition at up to 1 µM [%],Structure (SMILES)
1,≥ 50,"CCNC(=O)NS(=O)(=O)c1cc(Nc2ccc(Cl)cc2C)c(C(=O)N2CCC(c3ccc(F)cc3)CC2)cn1 [Compound 169, 4-(4-chloro-2-methylphenylamino)-N-(ethylcarbamoyl)-5-[4-(4-fluorophenyl)piperidine-1-carbonyl]pyridine-2-sulfonamide]"
2,≥ 50,"Cc1cccc(F)c1Nc1cc(S(N)(=O)=O)ncc1C(=O)N1CCC(c2ccc(F)cc2)CC1 [Compound 72, 4-(2-fluoro-6-methylphenylamino)-5-[4-(4-fluorophenyl)piperidine-1-carbonyl]pyridine-2-sulfonamide]"
3,≥ 50,"Cc1ccc(Nc2cc(S(N)(=O)=O)ncc2C(=O)N2CCC(c3ccc(F)cc3)CC2)cc1 [Compound 98, 5-[4-(4-fluorophenyl)piperidine-1-carbonyl]-4-(p-tolylamino)pyridine-2-sulfonamide]"
4,≥ 50,"Cc1cccc(Nc2cc(S(N)(=O)=O)ncc2C(=O)N2CCC(c3ccc(F)cc3)CC2)c1F [Compound 76, 4-(2-fluoro-3-methylphenylamino)-5-[4-(4-fluorophenyl)piperidine-1-carbonyl]pyridine-2-sulfonamide]"
5,≥ 50,"Cc1cc(F)ccc1Nc1cc(S(=O)(=O)NC2CCN(C)C2=O)ncc1C(=O)N1CCC(c2ccc(F)cc2)CC1 (stereo not drawn) [Compound 8, 4-(4-fluoro-2-methylphenylamino)-5-[4-(4-fluorophenyl)piperidine-1-carbonyl]-N-(1-methyl-2-oxopyrrolidin-3-yl)pyridine-2-sulfonamide]"
6,≥ 50,"Cc1c(Cl)ccc(Nc2cc(S(N)(=O)=O)ncc2C(=O)N2CCC(c3ccc(F)cc3)CC2)c1F [Compound 77, 4-(4-chloro-2-fluoro-3-methylphenylamino)-5-[4-(4-fluorophenyl)piperidine-1-carbonyl]pyridine-2-sulfonamide]"
7,≥ 50,"NS(=O)(=O)c1cc(Nc2c(F)cccc2F)c(C(=O)N2CCC(c3ccc(F)cc3)CC2)cn1 [Compound 73, 4-(2,6-difluorophenylamino)-5-[4-(4-fluorophenyl)piperidine-1-carbonyl]pyridine-2-sulfonamide]"
8,≥ 50,"Cc1cccc(Nc2cc(S(N)(=O)=O)ncc2C(=O)N2CCC(c3ccc(F)cc3)CC2)c1 [Compound 96, 5-[4-(4-fluorophenyl)piperidine-1-carbonyl]-4-(m-tolylamino)pyridine-2-sulfonamide]"
9,≥ 50,"NS(=O)(=O)c1ncc(C(=O)N2CCC(c3ccc(F)cc3)CC2)c(Nc2ccc(Cl)nc2Cl)c1Cl [Compound 327, 3-chloro-4-(2,6-dichloropyridin-3-ylamino)-5-[4-(4-fluorophenyl)piperidine-1-carbonyl]pyridine-2-sulfonamide]"
10,≥ 50,"COc1cc(F)ccc1Nc1cc(S(N)(=O)=O)ncc1C(=O)N1CCC(c2ccc(F)cc2)CC1 [Compound 99, 4-(4-fluoro-2-methoxyphenylamino)-5-[4-(4-fluorophenyl)piperidine-1-carbonyl]pyridine-2-sulfonamide]"
11,≥ 50,"Cc1c(Cl)ccc(Nc2cc(S(N)(=O)=O)ncc2C(=O)N2CCC(c3ccc(F)cc3)CC2)c1C [Compound 66, 4-(4-chloro-2,3-dimethylphenylamino)-5-[4-(4-fluorophenyl)piperidine-1-carbonyl]pyridine-2-sulfonamide]"
